Drawing on US10821115B2, “Compounds that inhibit Mcl-1 protein” (priority 2017, dated 2020), this text covers IC50 for 20 compounds.

The target of the first experiment is recombinant human Mcl-1 (residues 171-327) / Bim interaction (Homo sapiens (Human), UniProt Q07820). Briefly: biochemical. It is filed as binding. The conditions noted are these: 0.1 nM Mcl-1(171-327), 0.05 nM biotin-Bim (51-76); read-out: Mcl-1 HTRF IC50. In general terms: TR-FRET usually uses a lanthanide donor and a delayed reading to cut background.
Chain of recombinant human Mcl-1 (residues 171-327) / Bim interaction (Q07820 171-327): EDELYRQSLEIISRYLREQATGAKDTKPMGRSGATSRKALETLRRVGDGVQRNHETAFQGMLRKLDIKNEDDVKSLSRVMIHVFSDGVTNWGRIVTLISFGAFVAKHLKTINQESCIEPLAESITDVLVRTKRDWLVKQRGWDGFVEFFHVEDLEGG
The term IC50 denotes the concentration at which inhibition is half-maximal. Regarding `C[C@@H]1CS(=O)(=O)NC(=O)c2ccc3c(c2)N(C[C@@H]2CC[C@H]2[C@](O)(CN2CCN4CCOC[C@@H]4C2)CC[C@@H]1C)C[C@@]1(CCCc2cc(Cl)ccc21)CO3` [Example 405, (1S,3′R,6′R,7′S,10′S,11′S)-6-chloro-7′-((9aS)-hexahydropyrazino[2,1-c][1,4]oxazin-8(1H)-ylmethyl)-7′-hydroxy-10′,11′-dimethyl-3,4-dihydro-2H, 15′H-spiro[naphthalene-1,22′-[20]oxa[13]thia[1,14]diazatetracyclo[14.7.2.0-3,6˜.0˜19,24˜]pentacosa[16,18,24]trien]-15′-one 13′,13′-dioxide], the IC50 is 0.057 nM. On the same count and under the same terms, for `C[C@@H]1[C@@H](C)C/C=C/[C@@]2(CN3CCOC[C@H]3CO2)[C@@H]2CC[C@H]2CN2C[C@@]3(CCCc4cc(Cl)ccc43)COc3ccc(cc32)C(=O)NS1(=O)=O` [Example 99, (1S,3′R,6′R,7′S,8′E,9a″S,11′S,12′R)-6-chloro-11′,12′-dimethyl-3,4,6″,7″,9″,9a″-hexahydro-1″H,2H,15′H-dispiro[naphthalene-1,22′-[20]oxa[13]thia[1,14]diazatetracyclo[14.7.2.0˜3,6˜.0˜19,24˜]pentacosa[8,16,18,24]tetraene-7′,3″-[1,4]oxazino[3,4-c][1,4]oxazin]-15′-one 13′,13′-dioxide] the value was 0.243 nM; for `C[C@@H]1[C@@H](C)C/C=C/[C@]2(CN(C)CCO2)[C@@H]2CC[C@H]2CN2C[C@@]3(CCCc4cc(Cl)ccc43)COc3ccc(cc32)C(=O)NS1(=O)=O` [Example 130], 0.92 nM; for `CC(C)N1CCO[C@]2(/C=C/C[C@H](C)[C@@H](C)S(=O)(=O)NC(=O)c3ccc4c(c3)N(C[C@@H]3CC[C@H]32)C[C@@]2(CCCc3cc(Cl)ccc32)CO4)C1` [Example 127, (1 S,3′R,6′R,7′S,8′E, 11′S,12′R)-6-chloro-11′,12′-dimethyl-4″-(1-methylethyl)-3,4-dihydro-2H,15′H-dispiro[naphthalene-1,22′-[20]oxa[13]thia[1,14]diazatetracyclo[14.7.2.0-3,6˜.0˜19,24˜]pentacosa[8,16,18,24]tetraene-7′,2″-[1,4]oxazinan]-15′-one 13′,13′-dioxide], 0.395 nM. In the case of `CCO[C@@]1(CN2CCN3CCOC[C@@H]3C2)/C=C/C[C@H](C)[C@@H](C)S(=O)(=O)NC(=O)c2ccc3c(c2)N(C[C@@H]2CC[C@H]21)C[C@@]1(CCCc2ccccc21)CO3` [Example 105, (1S,3′R,6′R,7′S,8′E,11′S,12′R)-7′-ethoxy-7′-((9aS)-hexahydropyrazino[2,1-c][1,4]oxazin-8(1H)-ylmethyl)-11′,12′-dimethyl-3,4-dihydro-2H, 15′H-spiro[naphthalene-1,22′-[20]oxa[13]thia[1,14]diazatetracyclo[14.7.2.0-3,6˜.0˜19,24˜]pentacosa[8,16,18,24]tetraen]-15′-one 13′,13′-dioxide], the IC50 is 0.423 nM.

The experiment is the same for the next values; noted with them: Mcl-1 HTRF IC50.
On to `C[C@@H]1[C@@H](C)C/C=C/[C@](O)(CS(=O)(=O)N(C)C)[C@@H]2CC[C@H]2CN2C[C@@]3(CCCc4cc(Cl)ccc43)COc3ccc(cc32)C(=O)NS1(=O)=O` (single isomer, unassigned) [Example 100293], for which the half-inhibitory concentration (IC50) was found to be 0.522 nM.

The same experiment, now with this note: TR-FRET, Mcl-1(171-327) / biotin-Bim (51-76); read-out: Mcl-1 HTRF IC50.
With `CO[C@@]1(CO)/C=C/C[C@H](C)[C@@H](C)S(=O)(=O)NC(=O)c2ccc3c(c2)N(C[C@@H]2CC[C@H]21)C[C@@]1(CCCc2cc(Cl)ccc21)CO3` [Example 100001, (1 S,3′R,6′R,7′S, 8′E,11′S, 12′R)-6-chloro-7′-(hydroxymethyl)-7′-methoxy-11′,12′-dimethyl-3,4-dihydro-2H, 15′H-spiro[naphthalene-1,22′-[20]oxa[13]thia[1,14]diazatetracyclo[14.7.2.˜3,6˜.0˜19,24˜]pentacosa[8,16,18,24]tetraen]-15′-one 13′,13′-dioxide], the IC50 came to 0.055 nM. For `C[C@H]1CC/C=C/[C@@](C)(O)[C@@H]2CC[C@H]2CN2C[C@@]3(CCCc4cc(Cl)ccc43)COc3ccc(cc32)C(=O)NS1(=O)=O` [Example 100030, (1S,3′R,6′R,7′R,8′E,12′S)-6-chloro-7′-hydroxy-7′,12′-dimethyl-3,4-dihydro-2H,15′H-spiro[naphthalene-1,22′-[20]oxa[13]thia[1,14]diazatetracyclo [14.7.2.0~3,6~.0~19,24~]pentacosa[8,16,18,24]tetraen]-15′-one 13′,13′-dioxide], the IC50 is 10.4 nM.

As for `CO[C@]1(CO)/C=C/C[C@H](C)[C@@H](C)S(=O)(=O)NC(=O)c2ccc3c(c2)N(C[C@@H]2CC[C@H]21)C[C@@]1(CCCc2cc(Cl)ccc21)CO3` [Example 100312, (1S,3′R,6′R,7′R,8′E,11′S,12′R)-6-chloro-7′-(hydroxymethyl)-7′-methoxy-11′,12′-dimethyl-3,4-dihydro-2H,15′H-spiro[naphthalene-1,22′-[20]oxa[13]thia[1,14]diazatetracyclo [14.7.2.0~3,6~.0~19,24~]pentacosa[8,16,18,24]tetraen]-15′-one 13′,13′-dioxide], the IC50 amounted to 0.088 nM. The same measure, in the same setting: for `C[C@H]1CC/C=C/[C@](C)(O)[C@@H]2CC[C@H]2CN2C[C@@]3(CCCc4cc(Cl)ccc43)COc3ccc(cc32)C(=O)NS1(=O)=O` (single isomer, unassigned) [Example 100029] the value was 8.73 nM. Regarding `C[C@H]1CC/C=C/[C@](C)(O)[C@@H]2CC[C@H]2CN2C[C@@]3(CCCc4cc(Cl)ccc43)COc3ccc(cc32)C(=O)NS1(=O)=O` (single isomer, unassigned) [Example 100028], the IC50 was 1.26 nM. Same read-out and setting: for `C[C@@H]1[C@@H](C)C/C=C/[C@](O)(C#CCCCN2CCOCC2)[C@@H]2CC[C@H]2CN2C[C@@]3(CCCc4cc(Cl)ccc43)COc3ccc(cc32)C(=O)NS1(=O)=O` [Example 100494, (1S,3′R,6′R,7′R,8′E,11′S,12′R)-6-chloro-7′-hydroxy-11′,12′-dimethyl-7′-(5-(4-morpholinyl)-1-pentyn-1-yl)-3,4-dihydro-2H,15′H-spiro[naphthalene-1,22′-[20]oxa[13]thia[1,14]diazatetracyclo [14.7.2.0~3,6~.0~19,24~]pentacosa[8,16,18,24]tetraen]-15′-one 13′,13′-dioxide] the value was 0.078 nM; for `C[C@@H]1CC[C@@H]2CC2[C@](C)(O)[C@@H]2CC[C@H]2CN2C[C@@]3(CCCc4cc(Cl)ccc43)COc3ccc(cc32)C(=O)NS1(=O)=O` (stereo in doubt) [Example 100033, (1S,3′R,6′R,7′S,8′S,13′R)-6-chloro-7′-hydroxy-7′,13′-dimethyl-3,4-dihydro-2H,16′H-spiro[naphthalene-1,23′-[21]oxa[14]thia[1,15]diazapentacyclo [15.7.2.0~3,6~.0~8,10~.0~20,25~]hexacosa [17,19,25]trien]-16′-one 14′,14′-dioxide], 2.81 nM.

For the compound `N#C[C@]1(O)CCCCCS(=O)(=O)NC(=O)c2ccc3c(c2)N(C[C@@H]2CC[C@H]21)C[C@@]1(CCCc2cc(Cl)ccc21)CO3` [Example 100027, (1S,3′R,6′R,7′S)-6-chloro-7′-hydroxy-15′-oxo-3,4-dihydro-2H-spiro[naphthalene-1,22′-[20]oxa[13]thia[1,14]diazatetracyclo [14.7.2.0~3,6~.0~19,24~]pentacosa[16,18,24]triene]-7′-carbonitrile 13′,13′-dioxide], the IC50 came out at 7.34 nM.

`CC#C[C@@]1(O)CCCCCS(=O)(=O)NC(=O)c2ccc3c(c2)N(C[C@@H]2CC[C@H]21)C[C@@]1(CCCc2cc(Cl)ccc21)CO3` [Example 100026, (1S,3′R,6′R,7′R)-6-chloro-7′-hydroxy-7′-(1-propyn-1-yl)-3,4-dihydro-2H,15′H-spiro[naphthalene-1,22′-[20]oxa[13]thia[1,14]diazatetracyclo [14.7.2.0~3,6~.0~19,24~]pentacosa[16,18,24]trien]-15′-one 13′,13′-dioxide]: the IC50 is 2.15 nM. On the same count and under the same terms, for `CC[C@@H]1CC/C=C/[C@@](O)(CO)[C@@H]2CC[C@H]2CN2C[C@@]3(CCCc4cc(Cl)ccc43)COc3ccc(cc32)C(=O)NS1(=O)=O` [Example 100034, (1S,3′R,6′R,7′S,8′E,12′R)-6-chloro-12′-ethyl-7′-hydroxy-7′-(hydroxymethyl)-3,4-dihydro-2H,15′H-spiro[naphthalene-1,22′-[20]oxa[13]thia[1,14]diazatetracyclo [14.7.2.0~3,6~.0~19,24~]pentacosa[8,16,18,24]tetraen]-15′-one 13′,13′-dioxide] the value was 0.877 nM; for `CC#C[C@]1(O)CCCCCS(=O)(=O)NC(=O)c2ccc3c(c2)N(C[C@@H]2CC[C@H]21)C[C@@]1(CCCc2cc(Cl)ccc21)CO3` [Example 100025, (1S,3′R,6′R,7′S)-6-chloro-7′-hydroxy-7′-(1-propyn-1-yl)-3,4-dihydro-2H,15′H-spiro[naphthalene-1,22′-[20]oxa[13]thia[1,14]diazatetracyclo [14.7.2.0~3,6~.0~19,24~]pentacosa[16,18,24]trien]-15′-one 13′,13′-dioxide], 2.35 nM. On to `C[C@]1(O)CCCCCS(=O)(=O)NC(=O)c2ccc3c(c2)N(C[C@@H]2CC[C@H]21)C[C@@]1(CCCc2cc(Cl)ccc21)CO3` [Example 100023, (1S,3′R,6′R,7′S)-6-chloro-7′-hydroxy-7′-methyl-3,4-dihydro-2H,15′H-spiro[naphthalene-1,22′-[20]oxa[13]thia[1,14]diazatetracyclo [14.7.2.0~3,6~.0~19,24~]pentacosa[16,18,24]trien]-15′-one 13′,13′-dioxide], for which the IC50 was 3.94 nM.

Staying with this experiment, now noted: read-out: Mcl-1 HTRF IC50.
As for `C[C@@H]1[C@@H](C)C/C=C/[C@@](O)(CS(=O)(=O)N(C)C)[C@@H]2CC[C@H]2CN2C[C@@]3(CCCc4cc(Cl)ccc43)COc3ccc(cc32)C(=O)NS1(=O)=O` (single isomer, unassigned) [Example 100020], the IC50 was 0.032 nM.

Consider `C[C@H]1CCCC[C@](C)(O)[C@@H]2CC[C@H]2CN2C[C@@]3(CCCc4cc(Cl)ccc43)COc3ccc(cc32)C(=O)NS1(=O)=O` [Example 100031, (1S,3′R,6′R,7′S,12′S)-6-chloro-7′-hydroxy-7′,12′-dimethyl-3,4-dihydro-2H,15′H-spiro[naphthalene-1,22′-[20]oxa[13]thia[1,14]diazatetracyclo [14.7.2.0~3,6~.0~19,24~]pentacosa[16,18,24]trien]-15′-one 13′,13′-dioxide], for which the IC50 came out at 7.45 nM.
